Test results as given in US20150336943A1, “NOVEL BENZODIOXANE-PIPERIDINE DERIVATIVES AND THEIR THERAPEUTIC APPLICATIONS FOR TREATING NEUROPSYCHIATRIC DISORDERS” (PIERRE FABRE MEDICAMENT, priority 2013, published 2015).

Key:
[1] = biological target: T1, adrenergic receptor alpha2C (Homo sapiens, UniProt P18825); experiment: Inhibition constants (Ki) for adrenergic receptor alpha2C in recombinant cells; format: binding; conditions: read-out: pKi α2C (converted)
T1 construct: expressed in transfected cells; host or cells: recombinant human cells (so in the source)
T1 sequence (P18825 1-462): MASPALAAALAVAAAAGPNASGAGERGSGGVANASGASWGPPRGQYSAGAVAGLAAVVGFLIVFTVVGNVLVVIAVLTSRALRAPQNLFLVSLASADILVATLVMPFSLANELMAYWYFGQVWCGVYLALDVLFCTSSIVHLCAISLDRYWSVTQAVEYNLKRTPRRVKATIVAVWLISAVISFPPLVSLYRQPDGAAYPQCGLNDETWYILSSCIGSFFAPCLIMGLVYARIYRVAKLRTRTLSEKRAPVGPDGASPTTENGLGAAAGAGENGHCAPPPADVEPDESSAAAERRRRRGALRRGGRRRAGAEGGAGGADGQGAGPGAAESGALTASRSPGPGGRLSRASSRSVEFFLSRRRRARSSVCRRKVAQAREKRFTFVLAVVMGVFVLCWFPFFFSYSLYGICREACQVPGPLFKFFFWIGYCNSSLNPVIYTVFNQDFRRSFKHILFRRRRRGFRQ
Procedure: (§1) Compounds of formula 1 have been evaluated in vitro as ligands for dopaminergic and noradrenergic receptors and modulators of the activity of these receptors according to the invention in recombinant human cells expressing the receptors. The inhibition constants (Ki) were measured for dopaminergic receptors D2 and D3, and for adrenergic receptors alpha2A, alpha2B and alpha2C, according to the described methods (Newman-Tancredi A, Assie M B, Martel J C, Cosi C, Slot L B, Palmier C, Rauly-Lestienne I, Colpaert F, Vacher B, Cussac D. F15063, a potential antipsychotic with D2/D3 antagonist, 5-HT 1A agonist and D4 partial agonist properties. I. In vitro receptor affinity and efficacy profile. Br J Pharmacol., 2007, 151:237-252). The intrinsic activity of the products for the D2 receptor was measured (Bruins Slot L A, De Vries L, Newman-Tancredi A, Cussac D. Differential profile of antipsychotics at serotonin 5-HT1A and dopamine D2S receptors coupled to extracellular signal-regulated kinase. Eur J Pharmacol, 2006, 534; 63-70. The results obtained for some of these compounds are presented in the following table.

[2] = system: MK-801-induced hyperactivity; experiment: MK-801-induced hyperactivity test in mice; format: in vivo; conditions: Mus musculus
D2 receptor = biological target: T2, D2 receptor (Homo sapiens, UniProt P14416); experiment: Intrinsic (agonist) activity at the D2 receptor; format: cell-based
T2 construct: expressed in transfected cells; host or cells: recombinant human cells (so in the source)
T2 sequence (P14416 1-414 isoform P14416-2): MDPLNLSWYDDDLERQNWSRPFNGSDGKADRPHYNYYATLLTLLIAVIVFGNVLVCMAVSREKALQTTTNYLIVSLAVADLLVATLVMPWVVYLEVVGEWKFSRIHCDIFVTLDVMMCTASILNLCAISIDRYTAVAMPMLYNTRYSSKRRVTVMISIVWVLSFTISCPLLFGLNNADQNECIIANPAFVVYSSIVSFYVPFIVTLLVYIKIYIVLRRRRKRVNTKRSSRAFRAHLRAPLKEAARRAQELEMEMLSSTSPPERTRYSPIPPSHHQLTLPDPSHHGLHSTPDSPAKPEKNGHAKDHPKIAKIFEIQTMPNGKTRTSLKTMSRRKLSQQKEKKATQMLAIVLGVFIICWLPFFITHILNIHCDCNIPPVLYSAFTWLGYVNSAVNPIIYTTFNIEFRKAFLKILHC
Procedure: The prior art mentions, for benzodioxane-piperidine derivatives bearing an amide, a urea or an imidazolidinone, as non-selective alpha2-antagonists (WO 97/28157, WO 98/02435); some of these products also have a weak affinity for the D2 dopaminergic receptor (T. Imbert, J. Med. Chem, 2000, 43: 3653-3664). […] Activity as a D2 and D3 receptor agonist was determined according to the described methods (Bruins Slot L A, De Vries L, Newman-Tancredi A, Cussac D. Differential profile of antipsychotics at serotonin 5-HT1A and dopamine D2S receptors coupled to extracellular signal-regulated kinase. Eur J Pharmacol, 2006, 534; 63-70; Bruins Slot L A, Palmier C, Tardif S, Cussac D. Action of novel antipsychotics at human dopamine D3 receptors coupled to G protein and ERK1/2 activation. Neuropharmacology, 2007, 53: 232-241) for the following compounds, such as described in WO 97/28157 and WO 98/02435; • 1-benzyl-3-(2-(1-((2,3-dihydrobenzo[b][1,4]dioxin-2-yl)methyl)piperidin-4-yl)ethyl)imidazolidin-2-one • 1-(2-(1-((2,3-dihydrobenzo[b][1,4]dioxin-2-yl)methyl)piperidin-4-yl)ethyl)-3-methylimidazolidin-2-one • 1-(2,6-dichlorophenyl)-3-(2-(1-((2,3-dihydrobenzo[b][1,4]dioxin-2-yl)methyl)piperidin-4-yl)ethyl)imidazolidin-2-one • 1-(2-(1-((2,3-dihydrobenzo[b][1,4]dioxin-2-yl)methyl)piperidin-4-yl)ethyl)-3-(pyridin-4-yl)imidazolidin-2-one • 3-(2-(1-((2,3-dihydrobenzo[b][1,4]dioxin-2-yl)methyl)piperidin-4-yl)ethyl)-1-phenylimidazolidine-2,4-dione • (S)—N-(2-(1-((2,3-dihydrobenzo[b][1,4]dioxin-2-yl)methyl)piperidin-4-yl)ethyl)-[1,1′-biphenyl]-4-carboxamide • (S)—N-(2-(1-((2,3-dihydrobenzo[b][1,4]dioxin-2-yl)methyl)piperidin-4-yl)ethyl)-4-(1H-pyrrol-1-yl)benzamide • (S)—N-(2-(1-((2,3-dihydrobenzo[b][1,4]dioxin-2-yl)methyl)piperidin-4-yl)ethyl)-4-(pyridin-4-yl)benzamide • (S)—N-(2-(1-((2,3-dihydrobenzo[b][1,4]dioxin-2-yl)methyl)piperidin-4-yl)ethyl)-4-(pyridin-3-yl)benzamide • (S)—N-(2-(1-((2,3-dihydrobenzo[b][1,4]dioxin-2-yl)methyl)piperidin-4-yl)ethyl)-9-oxo-9H-fluorene-1-carboxamide.
as §1

dopaminergic receptor D2 = biological target: T3, dopaminergic receptor D2 (Homo sapiens, UniProt P14416); experiment: Inhibition constants (Ki) for dopaminergic receptor D2 in recombinant cells; format: binding; conditions: read-out: pKi D2 (converted)
T3 construct: expressed in transfected cells; host or cells: recombinant human cells (so in the source)
T3 sequence (P14416 whole entry): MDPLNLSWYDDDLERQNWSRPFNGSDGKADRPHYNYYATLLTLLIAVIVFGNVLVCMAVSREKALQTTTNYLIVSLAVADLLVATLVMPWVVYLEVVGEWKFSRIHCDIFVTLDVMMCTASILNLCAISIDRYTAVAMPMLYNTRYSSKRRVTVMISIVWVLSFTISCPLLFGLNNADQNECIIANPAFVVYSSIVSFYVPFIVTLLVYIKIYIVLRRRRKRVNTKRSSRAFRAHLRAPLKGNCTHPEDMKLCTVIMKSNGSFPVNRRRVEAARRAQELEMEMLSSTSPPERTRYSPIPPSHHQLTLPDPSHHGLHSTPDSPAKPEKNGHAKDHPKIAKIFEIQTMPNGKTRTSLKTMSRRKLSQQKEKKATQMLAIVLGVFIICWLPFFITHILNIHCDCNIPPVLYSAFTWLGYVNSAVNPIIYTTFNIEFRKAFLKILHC
Procedure: as §1

dopaminergic receptor D3 = biological target: T4, dopaminergic receptor D3 (Homo sapiens, UniProt P35462); experiment: Inhibition constants (Ki) for dopaminergic receptor D3 in recombinant cells; format: binding; conditions: read-out: pKi D3 (converted)
T4 construct: expressed in transfected cells; host or cells: recombinant human cells (so in the source)
T4 sequence (P35462 whole entry): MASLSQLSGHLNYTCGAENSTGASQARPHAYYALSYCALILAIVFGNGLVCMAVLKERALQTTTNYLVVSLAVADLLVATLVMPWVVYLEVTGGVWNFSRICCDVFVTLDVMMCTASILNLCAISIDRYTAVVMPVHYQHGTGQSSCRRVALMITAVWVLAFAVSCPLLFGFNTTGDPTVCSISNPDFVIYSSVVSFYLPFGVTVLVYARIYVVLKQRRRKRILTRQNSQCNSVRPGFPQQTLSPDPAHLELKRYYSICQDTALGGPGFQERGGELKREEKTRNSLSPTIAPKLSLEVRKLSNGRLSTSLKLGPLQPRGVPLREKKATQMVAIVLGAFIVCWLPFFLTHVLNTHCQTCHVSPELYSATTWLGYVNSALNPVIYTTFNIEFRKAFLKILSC
Procedure: as §1

[3] = biological target: T5, adrenergic receptor alpha2A (Homo sapiens, UniProt P08913); experiment: Inhibition constants (Ki) for adrenergic receptor alpha2A in recombinant cells; format: binding; conditions: read-out: pKi α2A (converted)
T5 construct: expressed in transfected cells; host or cells: recombinant human cells (so in the source)
T5 sequence (P08913 1-465): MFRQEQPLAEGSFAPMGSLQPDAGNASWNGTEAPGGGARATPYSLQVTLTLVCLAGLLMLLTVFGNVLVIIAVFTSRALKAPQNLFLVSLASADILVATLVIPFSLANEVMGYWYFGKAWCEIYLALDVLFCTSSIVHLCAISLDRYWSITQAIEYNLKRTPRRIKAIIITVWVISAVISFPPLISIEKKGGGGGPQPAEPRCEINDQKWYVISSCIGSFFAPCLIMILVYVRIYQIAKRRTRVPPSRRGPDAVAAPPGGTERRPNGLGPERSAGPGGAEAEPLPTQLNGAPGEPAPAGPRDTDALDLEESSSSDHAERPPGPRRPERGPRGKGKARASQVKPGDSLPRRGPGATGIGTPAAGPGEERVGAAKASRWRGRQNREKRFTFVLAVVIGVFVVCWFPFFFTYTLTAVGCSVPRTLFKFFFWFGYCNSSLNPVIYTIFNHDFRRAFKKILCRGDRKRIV
Procedure: as §1

[4] = biological target: T6, adrenergic receptor alpha2B (Homo sapiens, UniProt P18089); experiment: Inhibition constants (Ki) for adrenergic receptor alpha2B in recombinant cells; format: binding; conditions: read-out: pKi α2B (converted)
T6 construct: expressed in transfected cells; host or cells: recombinant human cells (so in the source)
T6 sequence (P18089 1-450): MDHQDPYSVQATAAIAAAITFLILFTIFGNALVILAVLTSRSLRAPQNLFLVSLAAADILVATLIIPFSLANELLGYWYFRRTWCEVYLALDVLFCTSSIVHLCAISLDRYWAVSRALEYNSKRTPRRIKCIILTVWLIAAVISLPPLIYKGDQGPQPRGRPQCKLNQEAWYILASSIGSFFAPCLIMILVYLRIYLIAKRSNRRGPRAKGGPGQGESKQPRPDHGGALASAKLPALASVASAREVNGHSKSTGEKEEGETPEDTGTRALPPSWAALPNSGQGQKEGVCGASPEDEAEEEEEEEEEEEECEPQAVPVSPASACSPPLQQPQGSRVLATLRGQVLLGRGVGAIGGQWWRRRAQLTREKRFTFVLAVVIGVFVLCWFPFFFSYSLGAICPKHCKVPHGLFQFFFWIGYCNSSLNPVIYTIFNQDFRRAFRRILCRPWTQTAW
Procedure: as §1

Row | Compound | Ki [1] [nM] | ED50 [2] [mg/kg] | I.A.: Intrinsic activity on receptor D2 in vitro (D2 receptor) | Ki (dopaminergic receptor D2) [nM] | Ki (dopaminergic receptor D3) [nM] | Ki [3] [nM] | Ki [4] [nM]
1 | O=C1OCCN1CCC1CCN(C[C@H]2COc3ccc(F)cc3O2)CC1 [Example 7, (S)-3-(2-(1-((7-fluoro-2,3-dihydrobenzo[b][1,4]dioxin-2-yl)methyl)piperidin-4-yl)ethyl)oxazolidin-2-one] | 0.851 | 0.15 | 36 percentage of that of dopamine | 14.5 | 6.46 | 8.71 | 1.95
2 | O=C1OCCN1CCC1CCN(C[C@H]2COc3c(F)cc(F)cc3O2)CC1 [Example 10, (S)-3-(2-(1-((5,7-difluoro-2,3-dihydrobenzo[b][1,4]dioxin-2-yl)methyl)piperidin-4-yl)ethyl)oxazolidin-2-one] | 0.537 | 0.13 | 6 percentage of that of dopamine | 4.57 | 1.55 | 4.57 | 0.813
3 | O=C1OCCN1CCC1CCN(C[C@H]2COc3c(Cl)cc(F)cc3O2)CC1 [Example 13, (S)-3-(2-(1-((5-chloro-7-fluoro-2,3-dihydrobenzo[b][1,4]dioxin-2-yl)methyl)piperidin-4-yl)ethyl)oxazolidin-2-one] | 0.955 | 0.04 | 16 percentage of that of dopamine | 0.955 | 0.603 | 7.08 | 2.57
4 | O=C1OC[C@H](Cc2ccccc2)N1CCC1CCN(C[C@H]2COc3ccc(Br)cc3O2)CC1 [Example 26, (S)-4-benzyl-3-(2-(1-(((S)-7-bromo-2,3-dihydrobenzo[b][1,4]dioxin-2-yl)methyl)piperidin-4-yl)ethyl)oxazolidin-2-one] | 2.04 | 0.9 | 8 percentage of that of dopamine | 0.891 | 0.447 | 34.7 | 9.55
5 | O=C1OC[C@H](Cc2ccccc2)N1CCC1CCN(C[C@H]2COc3ccc(OC(F)(F)F)cc3O2)CC1 [Example 32, (S)-4-benzyl-3-(2-(1-(((S)-7-(trifluoromethoxy)-2,3-dihydrobenzo[b][1,4]dioxin-2-yl)methyl)piperidin-4-yl)ethyl)oxazolidin-2-one] | 6.61 | 2.4 |  | 1.26 | 0.355 | 15.1 | 18.2
6 | O=C1OC[C@H](Cc2ccccc2)N1CCC1CCN(C[C@H]2COc3cc(O)ccc3O2)CC1 [Example 36] | 0.562 | 3.4 |  | 2.14 | 1.29 | 6.03 | 1.17
7 | O=C1OC[C@@H](CO)N1CCC1CCN(C[C@H]2COc3c(F)cc(Cl)cc3O2)CC1 [Example 62, (R)-3-(2-(1-(((S)-7-chloro-5-fluoro-2,3-dihydrobenzo[b][1,4]dioxin-2-yl)methyl)piperidin-4-yl)ethyl)-4-(hydroxymethyl)oxazolidin-2-one] | 1.62 | 2.1 | 0 percentage of that of dopamine | 1.58 | 0.347 | 30.9 | 10.5
8 | O=C1OC[C@@H](CO)N1CCC1CCN(C[C@H]2COc3c(Cl)cc(F)cc3O2)CC1 [Example 63, (R)-3-(2-(1-(((S)-5-chloro-7-fluoro-2,3-dihydrobenzo[b][1,4]dioxin-2-yl)methyl)piperidin-4-yl)ethyl)-4-(hydroxymethyl)oxazolidin-2-one] | 2.69 | 0.2 | 5 percentage of that of dopamine | 3.09 | 1.32 | 53.7 | 8.32
9 | O=C1OC[C@@H](COc2ccccc2)N1CCC1CCN(C[C@H]2COc3ccc(Br)cc3O2)CC1 [Example 69, (R)-3-(2-(1-(((S)-7-bromo-2,3-dihydrobenzo[b][1,4]dioxin-2-yl)methyl)piperidin-4-yl)ethyl)-4-(phenoxymethyl)oxazolidin-2-one] | 8.71 | 0.6 | 13 percentage of that of dopamine | 0.24 | 0.417 | 200 | 186
10 | N#Cc1ccc2c(c1)O[C@@H](CN1CCC(CCN3CCOCC3=O)CC1)CO2 [Example 85, (S)-3-((4-(2-(3-oxomorpholino)ethyl)piperidin-1-yl)methyl)-2,3-dihydrobenzo[b][1,4]dioxine-6-carbonitrile] | 6.76 | 0.5 |  | 19.1 | 1.23 | 57.5 | 81.3
11 | O=C1COCCN1CCC1CCN(C[C@H]2COc3c(F)cc(F)cc3O2)CC1 [Example 91, (S)-4-(2-(1-((5,7-difluoro-2,3-dihydrobenzo[b][1,4]dioxin-2-yl)methyl)piperidin-4-yl)ethyl)morpholin-3-one] | 0.437 | 0.7 | 24 percentage of that of dopamine | 15.1 | 3.31 | 4.9 | 1.55
